Data on two molecules can be found in article PMC2649009 (Journal of medicinal chemistry, 2008).

The target of this experiment is T1, human GIVA cPLA2 (Homo sapiens, UniProt P47712).
T1 sequence (P47712 1-749): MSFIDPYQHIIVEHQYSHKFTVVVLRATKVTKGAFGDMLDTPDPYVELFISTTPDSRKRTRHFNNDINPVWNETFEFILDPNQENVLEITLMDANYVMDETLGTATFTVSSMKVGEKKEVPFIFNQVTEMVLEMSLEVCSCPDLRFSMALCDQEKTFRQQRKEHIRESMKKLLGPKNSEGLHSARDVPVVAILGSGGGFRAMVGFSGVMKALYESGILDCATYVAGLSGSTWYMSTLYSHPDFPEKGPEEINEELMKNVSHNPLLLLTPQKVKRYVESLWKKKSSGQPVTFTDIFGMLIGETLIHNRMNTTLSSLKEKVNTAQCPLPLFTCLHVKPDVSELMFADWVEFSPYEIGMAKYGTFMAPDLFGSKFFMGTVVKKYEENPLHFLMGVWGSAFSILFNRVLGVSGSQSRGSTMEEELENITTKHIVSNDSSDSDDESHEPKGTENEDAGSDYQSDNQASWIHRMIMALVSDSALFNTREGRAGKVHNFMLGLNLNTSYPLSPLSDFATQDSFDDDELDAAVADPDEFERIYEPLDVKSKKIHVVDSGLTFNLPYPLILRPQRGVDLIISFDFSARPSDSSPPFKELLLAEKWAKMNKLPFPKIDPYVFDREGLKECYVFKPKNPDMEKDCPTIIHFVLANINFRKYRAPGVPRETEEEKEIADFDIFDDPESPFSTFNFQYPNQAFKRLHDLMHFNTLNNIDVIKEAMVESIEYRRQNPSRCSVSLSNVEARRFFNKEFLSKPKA
In words: mixed micelle-based modified Dole assay, GIVA cPLA2 inhibition. The experiment is classed as biochemical. To be noted: mole fraction of inhibitor in total substrate interface giving 50% inhibition.

Molecules are shown by their SMILES.

On to `CCCCCCCCCCCCCCCC(=O)C(F)(F)F` [compound 6, palmitoyl trifluoromethyl ketone, reference compound], for which the “GIVA cPLA2 XI(50)” value stood at 0.0223 mole fraction.
With `CCCCCCCCCCCCCCC(F)C(=O)C(F)(F)F` (centres unmarked) [compound 26, 1,1,1,3-Tetrafluoro-heptadecan-2-one] the figure was 0.0167 mole fraction.
